Test results: patent US9682118B1, “Inhibition of metastasis by cell penetrating peptides” (University of Mississippi Medical Center, priority 2006, dated 2017)

System: SKOV-3 cells
Assay: Boyden chamber migration assay
Format: cell-based
Conditions: SKOV-3, 8 μm pores, 24 h
Protocol: FIG. 14 is data related to a Boyden chamber assay. […] Cells were washed, fixed, stained with hematoxylin and 4 random fields were counted at 20× magnification. FIG. 14B is a set of images after cells were later incubated with Hoechst dye for 10 min. and images were obtained at 10× magnification.
In order to confirm the role of CPP-ELPs in preventing migration of SKOV-3 cells, a boyden chamber assay was performed (35). This assay involves a membrane with pore size of 8 μm. SKOV-3 cells are plated on one side of the membrane, and a chemoattractant (FBS) is placed on the opposite side of the membrane. The cells are allowed to migrate trough the pores toward the chemoattractant for […], and the cells which penetrated the membrane are quantified by cell counting and independently by Hoechst staining and fluorescence microscopy. […] Serum starvation of cells overnight ruled out the fact that proliferation was a contributing factor in this assay.

## Tat (YGRKKRRQRRR; Tat CPP) [Tat peptide]
  migration across the membrane toward FBS: migrated across the membrane
